ChEMBL document CHEMBL6114992, “Design, synthesis, biological evaluation, and mechanism of action of new pyrazines as anticancer agents in vitro and in vivo” (Bioorg Med Chem, 2025)
Calls of active or inactive are those of the source. The rule behind the calls is not given here.

Experiments:
KG-1 [1] = assay: Downregulation of XIAP expression in human KG-1 cells incubated for 48 hrs by Western blot analysis; format: functional, cell-based; conditions: dose 0.5-2.5 µM
THP-1 [2] = assay: Induction of apoptosis in human THP-1 cells assessed as late apoptotic cells at 2.5 uM incubated for 48 hrs by Annexin V-FITC/PI staining based flow cytometry (reference value: 0.74 %); format: functional
SK-OV-3 [3] = assay: Induction of apoptosis in human SK-OV-3 cells assessed as early apoptotic cells at 2.5 uM incubated for 48 hrs by Annexin V-FITC/PI staining based flow cytometry (reference value: 0.08 %); format: functional
THP-1 [4] = assay: Induction of apoptosis in human THP-1 cells assessed as viable cells at 1 uM incubated for 48 hrs by Annexin V-FITC/PI staining based flow cytometry (reference value: 96.33 %); format: functional; conditions: read-out: Activity
[5] = Antiproliferative activity against human SK-OV-3/Taxol cells assessed as inhibition of cell growth incubated for 72 hrs by MTT assay; format: functional, cell-based; conditions: SK-OV-3, 72 h
THP-1 [6] = assay: Induction of apoptosis in human THP-1 cells assessed as late apoptotic cells at 1 uM incubated for 48 hrs by Annexin V-FITC/PI staining based flow cytometry (reference value: 0.74 %); format: functional
SK-OV-3 [7] = assay: Induction of apoptosis in human SK-OV-3 cells assessed as necrotic cells at 1 uM incubated for 48 hrs by Annexin V-FITC/PI staining based flow cytometry (reference value: 4.45 %); format: functional
U-937 = assay: Antiproliferative activity against human U-937 cells assessed as inhibition of cell growth incubated for 72 hrs by MTT assay; format: functional, cell-based; conditions: U-937, 72 h
THP-1 [8] = assay: Induction of apoptosis in human THP-1 cells assessed as necrotic cells at 0.5 uM incubated for 48 hrs by Annexin V-FITC/PI staining based flow cytometry (reference value: 2.48 %); format: functional
SK-OV-3 [9] = assay: Antiproliferative activity against human SK-OV-3 cells assessed as inhibition of cell growth incubated for 72 hrs by MTT assay; format: functional, cell-based; conditions: SK-OV-3, 72 h
SK-OV-3 [10] = assay: Induction of apoptosis in human SK-OV-3 cells assessed as change in mitochondrial membrane potential at 1 uM incubated for 48 hrs by JC-1 staining based flow cytometry (reference value: 5.34 %); format: functional
THP-1 [11] = assay: Induction of apoptosis in human THP-1 cells assessed as viable cells at 0.5 uM incubated for 48 hrs by Annexin V-FITC/PI staining based flow cytometry (reference value: 96.33 %); format: functional; conditions: read-out: Activity
SK-OV-3 [12] = assay: Induction of apoptosis in human SK-OV-3 cells assessed as necrotic cells at 2.5 uM incubated for 48 hrs by Annexin V-FITC/PI staining based flow cytometry (reference value: 4.45 %); format: functional
THP-1 [13] = assay: Antiproliferative activity against human THP-1 cells assessed as inhibition of cell growth incubated for 72 hrs by MTT assay; format: functional, cell-based; conditions: THP-1, 72 h
[14] = biological target: Signal transducer and activator of transcription 3 (Homo sapiens) (UniProt P40763); assay: Inhibition of STAT3 phosphorylation in human KG-1 cells at 0.5 to 2.5 uM incubated for 48 hrs by Western blot analysis; format: cell-based; conditions: dose 0.5-2.5 µM
Chain of Signal transducer and activator of transcription 3 (Homo sapiens) (P40763 whole entry): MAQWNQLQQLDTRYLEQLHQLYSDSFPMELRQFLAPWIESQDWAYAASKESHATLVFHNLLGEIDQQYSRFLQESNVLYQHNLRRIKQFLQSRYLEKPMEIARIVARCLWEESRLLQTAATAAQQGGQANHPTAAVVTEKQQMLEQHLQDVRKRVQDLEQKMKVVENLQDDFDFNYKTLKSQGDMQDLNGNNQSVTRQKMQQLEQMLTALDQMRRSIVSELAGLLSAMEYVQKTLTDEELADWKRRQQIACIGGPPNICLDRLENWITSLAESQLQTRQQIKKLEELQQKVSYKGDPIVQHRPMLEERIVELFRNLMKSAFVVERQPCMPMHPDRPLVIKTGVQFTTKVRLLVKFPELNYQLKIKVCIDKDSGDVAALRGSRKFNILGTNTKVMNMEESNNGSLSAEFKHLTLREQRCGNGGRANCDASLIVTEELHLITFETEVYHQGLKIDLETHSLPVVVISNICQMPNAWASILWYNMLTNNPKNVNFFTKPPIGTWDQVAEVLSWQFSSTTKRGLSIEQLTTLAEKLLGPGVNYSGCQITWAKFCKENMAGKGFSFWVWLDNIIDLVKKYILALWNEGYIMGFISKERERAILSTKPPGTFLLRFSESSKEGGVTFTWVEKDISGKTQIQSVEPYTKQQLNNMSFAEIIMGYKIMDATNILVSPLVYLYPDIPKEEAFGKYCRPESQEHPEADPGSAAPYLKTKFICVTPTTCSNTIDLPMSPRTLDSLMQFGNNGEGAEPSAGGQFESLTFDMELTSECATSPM

THP-1 [15] = assay: Induction of apoptosis in human THP-1 cells assessed as change in mitochondrial membrane potential at 0.5 uM incubated for 48 hrs by JC-1 staining based flow cytometry (reference value: 5.15 %); format: functional
[16] = biological target: Signal transducer and activator of transcription 3 (Homo sapiens) (UniProt P40763); assay: Inhibition of STAT3 phosphorylation in human THP-1 cells at 0.5 to 2.5 uM incubated for 48 hrs by Western blot analysis; format: cell-based; conditions: dose 0.5-2.5 µM
THP-1 [17] = assay: Induction of apoptosis in human THP-1 cells assessed as viable cells at 2.5 uM incubated for 48 hrs by Annexin V-FITC/PI staining based flow cytometry (reference value: 96.33 %); format: functional; conditions: read-out: Activity
THP-1 [18] = assay: Induction of apoptosis in human THP-1 cells assessed as late apoptotic cells at 0.5 uM incubated for 48 hrs by Annexin V-FITC/PI staining based flow cytometry (reference value: 0.74 %); format: functional
SK-OV-3 [19] = assay: Induction of apoptosis in human SK-OV-3 cells assessed as viable cells at 2.5 uM incubated for 48 hrs by Annexin V-FITC/PI staining based flow cytometry (reference value: 90.97 %); format: functional; conditions: read-out: Activity
SK-OV-3 [20] = assay: Induction of apoptosis in human SK-OV-3 cells assessed as necrotic cells at 5 uM incubated for 48 hrs by Annexin V-FITC/PI staining based flow cytometry (reference value: 4.45 %); format: functional
KG-1 [21] = assay: Antiproliferative activity against human KG-1 cells assessed as inhibition of cell growth incubated for 72 hrs by MTT assay; format: functional, cell-based; conditions: KG-1, 72 h
SK-OV-3 [22] = assay: Induction of apoptosis in human SK-OV-3 cells assessed as early apoptotic cells at 1 uM incubated for 48 hrs by Annexin V-FITC/PI staining based flow cytometry (reference value: 0.08 %); format: functional
THP-1 [23] = assay: Induction of apoptosis in human THP-1 cells assessed as necrotic cells at 1 uM incubated for 48 hrs by Annexin V-FITC/PI staining based flow cytometry (reference value: 2.48 %); format: functional
THP-1 [24] = assay: Induction of apoptosis in human THP-1 cells assessed as early apoptotic cells at 1 uM incubated for 48 hrs by Annexin V-FITC/PI staining based flow cytometry (reference value: 0.45 %); format: functional
THP-1 [25] = assay: Induction of apoptosis in human THP-1 cells assessed as early apoptotic cells at 2.5 uM incubated for 48 hrs by Annexin V-FITC/PI staining based flow cytometry (reference value: 0.45 %); format: functional
SK-OV-3 [26] = assay: Induction of apoptosis in human SK-OV-3 cells assessed as late apoptotic cells at 1 uM incubated for 48 hrs by Annexin V-FITC/PI staining based flow cytometry (reference value: 4.51 %); format: functional
SK-OV-3 [27] = assay: Induction of apoptosis in human SK-OV-3 cells assessed as viable cells at 5 uM incubated for 48 hrs by Annexin V-FITC/PI staining based flow cytometry (reference value: 90.97 %); format: functional; conditions: read-out: Activity
THP-1 [28] = assay: Induction of apoptosis in human THP-1 cells assessed as early apoptotic cells at 0.5 uM incubated for 48 hrs by Annexin V-FITC/PI staining based flow cytometry (reference value: 0.45 %); format: functional
SK-OV-3 [29] = assay: Induction of apoptosis in human SK-OV-3 cells assessed as early apoptotic cells at 5 uM incubated for 48 hrs by Annexin V-FITC/PI staining based flow cytometry (reference value: 0.08 %); format: functional
SK-OV-3 [30] = assay: Induction of apoptosis in human SK-OV-3 cells assessed as late apoptotic cells at 5 uM incubated for 48 hrs by Annexin V-FITC/PI staining based flow cytometry (reference value: 4.51 %); format: functional
SK-OV-3 [31] = assay: Induction of apoptosis in human SK-OV-3 cells assessed as change in mitochondrial membrane potential at 5 uM incubated for 48 hrs by JC-1 staining based flow cytometry (reference value: 5.34 %); format: functional
THP-1 [32] = assay: Induction of apoptosis in human THP-1 cells assessed as change in mitochondrial membrane potential at 2.5 uM incubated for 48 hrs by JC-1 staining based flow cytometry (reference value: 5.15 %); format: functional
THP-1 [33] = assay: Induction of apoptosis in human THP-1 cells assessed as necrotic cells at 2.5 uM incubated for 48 hrs by Annexin V-FITC/PI staining based flow cytometry (reference value: 2.48 %); format: functional
SK-OV-3 [34] = assay: Downregulation of XIAP expression in human SK-OV-3 cells incubated for 48 hrs by Western blot analysis; format: functional, cell-based

IC50 (U-937) [µM]	IC50 (SK-OV-3 [9]) [µM]	IC50 (THP-1 [13]) [µM]	inhibition [14]	inhibition [16]	SMILES	Activity (KG-1 [1])	Activity (THP-1 [2]) [%]	Activity (SK-OV-3 [3]) [%]	viability at 1 µM (THP-1 [4]) [%]	IC50 [5] [µM]	Activity (THP-1 [6]) [%]	Activity (SK-OV-3 [7]) [%]	Activity (THP-1 [8]) [%]	Activity (SK-OV-3 [10]) [%]	viability at 0.5 µM (THP-1 [11]) [%]	Activity (SK-OV-3 [12]) [%]	Activity (THP-1 [15]) [%]	viability at 2.5 µM (THP-1 [17]) [%]	Activity (THP-1 [18]) [%]	viability at 2.5 µM (SK-OV-3 [19]) [%]	other results
0.69	1.31	0.6	Active	Active	CCc1nccnc1C(=O)/C=C/c1ccccn1	Dose-dependent-effect	3.26	0.41	91.6	1.24	1.73	8.98	2.41	11.51	93.5	9.16	6.52	81.9	1.53	67	Activity (SK-OV-3 [20]): 8.84%; IC50 (KG-1 [21]): 0.63 µM; Activity (SK-OV-3 [22]): 0.37%; Activity (THP-1 [23]): 1.94%; Activity (THP-1 [24]): 4.75%; Activity (THP-1 [25]): 13.09%; Activity (SK-OV-3 [26]): 19.41%; viability at 5 µM (SK-OV-3 [27]): 44.6%; Activity (THP-1 [28]): 2.51%; Activity (SK-OV-3 [29]): 1.46%; Activity (SK-OV-3 [30]): 45.06%; Activity (SK-OV-3 [31]): 31.28%; Activity (THP-1 [32]): 26.66%; Activity (THP-1 [33]): 1.77%; Activity (SK-OV-3 [34]): Dose-dependent-effect
1.73	1.39	1.52	Active	Active	Cc1nccnc1C(=O)/C=C/c1cccc(C#N)c1	Dose-dependent-effect	4.82	0.77	92.7	1.42	1.94	5.49	1.78	13.1	93.3	9.29	6.42	77.8	1.46	63.3	Activity (SK-OV-3 [20]): 9.68%; IC50 (KG-1 [21]): 1.79 µM; Activity (SK-OV-3 [22]): 1.09%; Activity (THP-1 [23]): 2.24%; Activity (THP-1 [24]): 3.12%; Activity (THP-1 [25]): 15.05%; Activity (SK-OV-3 [26]): 21.04%; viability at 5 µM (SK-OV-3 [27]): 22.5%; Activity (THP-1 [28]): 3.41%; Activity (SK-OV-3 [29]): 2.19%; Activity (SK-OV-3 [30]): 65.66%; Activity (SK-OV-3 [31]): 53.8%; Activity (THP-1 [32]): 29.42%; Activity (THP-1 [33]): 2.27%; Activity (SK-OV-3 [34]): Dose-dependent-effect
